Reference: PubChem BioAssay (NCI)
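How tested: cells in 96-well plates exposed to compound for 48 hours at five concentrations. GI50: concentration for 50% inhibition of growth. The concentration for full growth arrest is given as TGI.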

Experiments:
Assay in all cases: NCI tumour cell line growth inhibition, 48 h
[1] = system: CCRF-CEM leukemia
[2] = system: HCT-15 colon
[3] = system: K-562 leukemia
[4] = system: OVCAR-4 ovarian
[5] = system: OVCAR-8 ovarian
[6] = system: SK-OV-3 ovarian
[7] = system: SN12C renal
[8] = system: UACC-257 melanoma
[9] = system: UO-31 renal
[10] = system: HOP-62 NSCLC
[11] = system: U251 CNS

| SMILES | GI50 [1] | TGI [1] | GI50 [2] | TGI [2] | GI50 [3] | TGI [3] | GI50 [4] | TGI [4] | GI50 [5] | TGI [5] | GI50 [6] | TGI [6] | GI50 [7] | TGI [7] | GI50 [8] | TGI [8] | GI50 [9] | TGI [9] | TGI [10] | TGI [11] |
| --- | --- | --- | --- | --- | --- | --- | --- | --- | --- | --- | --- | --- | --- | --- | --- | --- | --- | --- | --- | --- |
| CCCCCCCCCCCCCCCCCCOc1ccccc1CC(=O)OCC[N+]1(C)CCCCC1 | 1.96 µM | 4.63 µM | 4.65 µM | 27.7 µM | 2.83 µM | 10.1 µM | 2.81 µM | 10.5 µM | 2.4 µM | 5.99 µM | 18.2 µM | 38.2 µM | 2.07 µM | 4.93 µM | 2.79 µM | 7.91 µM | 4.14 µM | 19.7 µM | – | – |
| O=C([O-])C[n+]1ccccc1 | – | > 100 µM | – | > 100 µM | – | > 100 µM | – | > 100 µM | – | > 100 µM | – | > 100 µM | – | > 100 µM | – | > 100 µM | – | > 100 µM | > 100 µM | > 100 µM |
| CN(CCCCCl)P(=O)(OCc1ccc([N+](=O)[O-])o1)OC[C@H]1O[C@@H](n2cc(F)c(=O)[nH]c2=O)C[C@@H]1O (stereo partly drawn) | – | 20.7 µM | – | > 100 µM | – | > 59.4 µM | – | 33.5 µM | – | > 100 µM | – | 34.1 µM | – | 9.07 µM | – | > 68 µM | – | > 100 µM | 25.6 µM | 34.6 µM |
| NN(CC(=O)O)CC(=O)O | – | > 100 µM | – | > 100 µM | – | > 100 µM | – | > 100 µM | – | > 100 µM | – | > 100 µM | – | > 100 µM | – | > 100 µM | – | > 100 µM | > 100 µM | > 100 µM |
| O=C(O)c1cc([N+](=O)[O-])cc2c(=O)c3cnccc3[nH]c12 | – | > 100 µM | – | > 100 µM | – | > 100 µM | – | > 100 µM | – | > 100 µM | – | > 100 µM | – | > 100 µM | – | – | – | > 100 µM | > 100 µM | > 100 µM |
| Nc1ncnc2nc[nH]c12 | 32.4 µM | > 250 µM | – | > 250 µM | – | > 250 µM | – | > 250 µM | – | > 250 µM | – | > 250 µM | – | > 237 µM | – | > 250 µM | – | > 250 µM | > 250 µM | > 250 µM |
